Reference: publication PMC7351026, “Serum Half-Lives for Short- and Long-Chain Perfluoroalkyl Acids after Ceasing Exposure from Drinking Water Contaminated by Firefighting Foam” (Environmental Health Perspectives, 2020)

How the values were obtained:
[1] = PFAS levels in urine samples of airport employees, specific-gravity adjusted (LC/MS/MS); format: in vivo, human
Method in brief: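 50 μL urine mixed with methanol and acetonitrile containing isotope-labelled internal standards, shaken 30 min, centrifuged, then analysed by LC/MS/MS in negative ion mode. Concentrations specific-gravity adjusted; urine/serum ratios from paired samples of 17 employees, averaged over repeated samplings per employee.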

[2] = Population average serum elimination rate and half-life (linear mixed model, one compartment, first-order); details: for Constant elimination rate (95% CI) / Half-life (95% CI): population average
Method in brief: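 Log-transformed serum PFAS fitted with a linear mixed model (random intercept only; age and sex as covariates), assuming one-compartment first-order elimination. Time counted in days from clean-water supply to first sampling. k is the negative average slope; half-life = ln2/k; sensitivity run after subtracting reference-population median background.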

[3] = Individual serum elimination rate and half-life (linear regression per employee); details: individual estimate;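 as to HL (half-life): half-life in years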
Method in brief: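 One-compartment, first-order model: for each employee and PFAS, the slope β of log serum concentration versus elapsed days (from clean water supply, over five samplings) gave k = −β and half-life = ln2/k. A positive slope left the half-life undetermined.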

[4] = Serum/water ratio; format: in vivo, human; details: median serum level of first samples (26 employees) divided by airport drinking-water level
Method: The ratio of serum and water concentration for each PFAS (serum/water ratio) was calculated based on median serum level in the first serum sample obtained from all 26 airport employees divided by the drinking-water concentration. This ratio is an indicator of PFAS accumulation in body.

[5] = Urine/serum ratio in paired samples; format: in vivo, human
Method: Urinary PFAS concentrations were specific-gravity adjusted. The ratio of urine and serum concentration for each PFAS (urine/serum ratio) at each sampling was calculated based on PFAS concentrations in paired serum and urine samples from 17 employees. Then the personal average urine/serum ratio was calculated using the mean value of repeated samplings for each employee.

[6] = highly exposed general population from Ronneby, Sweden, 108 Swedes, 5 y follow-up; ref Li et al. 2019; cited from earlier work
[7] = 2nd sampling (October 2018), count 17
[8] = 3rd sampling (November, 2018), count 16
[9] = 4th sampling (December 2018), count 14
[10] = 5th sampling (January 2019), count 12
[11] = model with original serum levels, age and sex as covariates
[12] = model with serum levels after subtraction of background exposure (sensitivity analysis)

With `O=S(=O)(O)C(F)(F)C(F)(F)C(F)(F)C(F)(F)C(F)(F)F` [PFPeS, perfluoropentane sulfonic acid] the “Specific gravity adjusted urinary level, 25 percentile” value [1, 7] was 0.06 ng/mL, the “Specific gravity adjusted urinary level, 75 percentile” value [1, 7] was 0.08 ng/mL and the “Specific gravity adjusted urinary level, Max” value [1, 7] was 0.11 ng/mL. The “Specific gravity adjusted urinary level, Median” value [1, 7] was 0.07 ng/mL, the “Specific gravity adjusted urinary level, Min” value [1, 7] was 0.04 ng/mL and the “Specific gravity adjusted urinary level, 25 percentile” value [1, 8] was 0.05 ng/mL. For the same compound, the “Specific gravity adjusted urinary level, 75 percentile” value [1, 8] was 0.09 ng/mL, the “Specific gravity adjusted urinary level, Max” value [1, 8] was 0.12 ng/mL and the “Specific gravity adjusted urinary level, Median” value [1, 8] was 0.07 ng/mL. The “Specific gravity adjusted urinary level, Min” value [1, 8] was 0.02 ng/mL, the “Specific gravity adjusted urinary level, 25 percentile” value [1, 9] was 0.07 ng/mL and the “Specific gravity adjusted urinary level, 75 percentile” value [1, 9] was 0.08 ng/mL. For the same compound, the “Specific gravity adjusted urinary level, Max” value [1, 9] was 0.12 ng/mL, the “Specific gravity adjusted urinary level, Median” value [1, 9] was 0.08 ng/mL and the “Specific gravity adjusted urinary level, Min” value [1, 9] was 0.03 ng/mL. The “Specific gravity adjusted urinary level, 25 percentile” value [1, 10] was 0.06 ng/mL, the “Specific gravity adjusted urinary level, 75 percentile” value [1, 10] was 0.08 ng/mL and the “Specific gravity adjusted urinary level, Max” value [1, 10] was 0.09 ng/mL. For the same compound, the “Specific gravity adjusted urinary level, Median” value [1, 10] was 0.07 ng/mL, the “Specific gravity adjusted urinary level, Min” value [1, 10] was 0.05 ng/mL and the “Specific gravity adjusted urine level, median (range)” value ([1]; second to fifth samplings, 17 airport employees) was 0.072 (0.021–0.12) ng/mL. The “Half-life shorter than L-PFOS” value ([2]; human, in vivo) was 4 times, the “Constant elimination rate (95% CI)” value [2, 11] was 1.1 (0.68, 1.51) yearly and the “Half-life (95% CI)” value [2, 11] was 0.63 (0.46, 1.01) year. For the same compound, the “Constant elimination rate (95% CI)” value [2, 12] was 1.1 (0.68, 1.52) yearly, the “Half-life (95% CI)” value [2, 12] was 0.63 (0.46, 1.01) year and the Elimination rate ([3]; subject 1, 5 samples) was 0.7 yearly. For the same compound, the “HL (half-life)” value ([3]; subject 1, 5 samples) was 1.0 year, the Elimination rate ([3]; subject 2, 5 samples) was 0.6 yearly and the “HL (half-life)” value ([3]; subject 2, 5 samples) was 1.2 year. For the same compound, the Elimination rate ([3]; subject 3, 5 samples) was 0.7 yearly, the “HL (half-life)” value ([3]; subject 3, 5 samples) was 0.9 year and the Elimination rate ([3]; subject 4, 5 samples) was 0.8 yearly. For the same compound, the “HL (half-life)” value ([3]; subject 4, 5 samples) was 0.8 year, the Elimination rate ([3]; subject 5, 5 samples) was 0.4 yearly and the “HL (half-life)” value ([3]; subject 5, 5 samples) was 1.7 year. The Elimination rate ([3]; subject 6, 4 samples) was 0.9 yearly, the “HL (half-life)” value ([3]; subject 6, 4 samples) was 0.7 year and the Elimination rate ([3]; subject 7, 5 samples) was 0.7 yearly. For the same compound, the “HL (half-life)” value ([3]; subject 7, 5 samples) was 0.9 year, the Elimination rate ([3]; subject 8, 5 samples) was 0.5 yearly and the “HL (half-life)” value ([3]; subject 8, 5 samples) was 1.4 year. For the same compound, the Elimination rate ([3]; subject 9, 5 samples) was 0.7 yearly, the “HL (half-life)” value ([3]; subject 9, 5 samples) was 1.0 year and the Elimination rate ([3]; subject 10, 5 samples) was 0.6 yearly. The “HL (half-life)” value ([3]; subject 10, 5 samples) was 1.2 year, the Elimination rate ([3]; subject 11, 5 samples) was 2.0 yearly and the “HL (half-life)” value ([3]; subject 11, 5 samples) was 0.3 year. For the same compound, the Elimination rate ([3]; subject 12, 5 samples) was 1.1 yearly, the “HL (half-life)” value ([3]; subject 12, 5 samples) was 0.6 year and the Elimination rate ([3]; subject 13, 5 samples) was 0.8 yearly. The “HL (half-life)” value ([3]; subject 13, 5 samples) was 0.9 year, the Elimination rate ([3]; subject 14, 4 samples) was 1.2 yearly and the “HL (half-life)” value ([3]; subject 14, 4 samples) was 0.6 year. The Elimination rate ([3]; subject 15, 5 samples) was 2.5 yearly, the “HL (half-life)” value ([3]; subject 15, 5 samples) was 0.3 year and the Elimination rate ([3]; subject 16, 5 samples) was 0.4 yearly. For the same compound, the “HL (half-life)” value ([3]; subject 16, 5 samples) was 1.6 year, the Elimination rate ([3]; subject 17, 5 samples) was 2.4 yearly and the “HL (half-life)” value ([3]; subject 17, 5 samples) was 0.3 year. The Serum/water ratio [4] was 38.3, the “Urine/serum ratio higher than L-PFOS” value ([5]; in vivo) was 10 times and the “Personal average urine/serum ratio, median (range)” value ([5]; mean of four paired samplings per subject, 17 airport employees) was 0.0089 (0.0057–0.026). For the same compound, the Average half-life [6] was 1.0 y.
